# Experimental data from PubChem BioAssay AID248 (DTP/NCI, 2004).
# “And” between values parts separate entries of the source, which are not always exact repeats. Equal entries are not always repeated. Toxic doses and inconclusive results are not listed.
# Tested on: L1210 leukemia ip in BDF1 mice, survival T/C
# Experiment: NCI In Vivo Anticancer Drug Screen. Data for tumor model L1210 Leukemia (intraperitoneal) in B6D2F1 (BDF1) mice
# Conditions: endpoint: mean survival time, higher = longer survival
# In short: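 Transplantable tumor model; survival measured in treated vs vehicle control mice. Value = treated/control.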
# [1] = dose: 100.0 mg/kg/injection, schedule: Q01DX009 (ip), vehicle: saline
# [2] = dose: 100.0 mg/kg/injection, schedule: Q04DX002 (ip), vehicle: saline with Tween-80
# [3] = dose: 100.0 mg/kg/injection, schedule: Q04DX003 (ip), vehicle: saline
# [4] = dose: 100.0 mg/kg/injection, schedule: Q01DX009 (ip), vehicle: Klucel (hydroxypropylcellulose) (HPC)
# [5] = dose: 100.0 mg/kg/injection, schedule: Q04DX003 (ip), vehicle: Klucel (hydroxypropylcellulose) (HPC)
# [6] = dose: 200.0 mg/kg/injection, schedule: Q01DX009 (ip), vehicle: Klucel (hydroxypropylcellulose) (HPC)
# [7] = dose: 200.0 mg/kg/injection, schedule: Q04DX003 (ip), vehicle: Klucel (hydroxypropylcellulose) (HPC)
# [8] = dose: 400.0 mg/kg/injection, schedule: Q01DX009 (ip), vehicle: Klucel (hydroxypropylcellulose) (HPC)
# [9] = dose: 400.0 mg/kg/injection, schedule: Q04DX003 (ip), vehicle: Klucel (hydroxypropylcellulose) (HPC)
# [10] = dose: 50.0 mg/kg/injection, schedule: Q01DX001 (ip), vehicle: saline
# [11] = dose: 100.0 mg/kg/injection, schedule: Q01DX001 (ip), vehicle: saline
# [12] = dose: 200.0 mg/kg/injection, schedule: Q01DX001 (ip), vehicle: saline
# [13] = dose: 400.0 mg/kg/injection, schedule: Q01DX001 (ip), vehicle: saline
# [14] = dose: 100.0 mg/kg/injection, schedule: Q04DX003 (ip), vehicle: saline with Tween-80
# [15] = dose: 200.0 mg/kg/injection, schedule: Q04DX003 (ip), vehicle: saline with Tween-80
# [16] = dose: 400.0 mg/kg/injection, schedule: Q04DX003 (ip), vehicle: saline with Tween-80
# [17] = dose: 100.0 mg/kg/injection, schedule: Q01DX009 (ip), vehicle: saline with Tween-80
# [18] = dose: 200.0 mg/kg/injection, schedule: Q01DX009 (ip), vehicle: saline with Tween-80
# [19] = dose: 200.0 mg/kg/injection, schedule: Q04DX003 (ip), vehicle: saline
# [20] = dose: 400.0 mg/kg/injection, schedule: Q01DX009 (ip), vehicle: saline with Tween-80
# [21] = dose: 400.0 mg/kg/injection, schedule: Q04DX003 (ip), vehicle: saline
# [22] = dose: 200.0 mg/kg/injection, schedule: Q01DX009 (ip), vehicle: saline
# [23] = dose: 400.0 mg/kg/injection, schedule: Q01DX009 (ip), vehicle: saline
compound,measurement,setting,value
CN(C)CCC(=O)/C=C\c1ccccc1,T/C,"dose: 25.0 mg/kg/injection, schedule: Q01DX009 (ip), vehicle: saline",91 % of control
same,T/C,"dose: 25.0 mg/kg/injection, schedule: Q04DX002 (ip), vehicle: saline with Tween-80",105 % of control
same,T/C,"dose: 25.0 mg/kg/injection, schedule: Q04DX003 (ip), vehicle: saline",89 % of control
same,T/C,"dose: 50.0 mg/kg/injection, schedule: Q01DX009 (ip), vehicle: saline",88 % of control
same,T/C,"dose: 50.0 mg/kg/injection, schedule: Q04DX002 (ip), vehicle: saline with Tween-80",98 % of control
same,T/C,"dose: 50.0 mg/kg/injection, schedule: Q04DX003 (ip), vehicle: saline",90 % of control
same,T/C,[1],88 % of control
same,T/C,[2],88 % of control
same,T/C,[3],89 % of control
OCc1cc(-c2ccc(Cl)cc2)nc2c(C(F)(F)F)cccc12,T/C,[4],108 % of control
same,T/C,[5],102 % of control
same,T/C,[6],111 % of control
same,T/C,[7],104 % of control
same,T/C,[8],109 % of control
same,T/C,[9],102 % of control
CC(=O)Nc1cc2c(cc1CC(=O)O)OCO2,T/C,[10],101 % of control
same,T/C,[11],95 % of control
same,T/C,[12],95 % of control
same,T/C,[13],101 % of control
COc1cccc(OC)c1C1(O)c2ccccc2-c2ccccc21,T/C,[14],98 % of control
same,T/C,[15],95 % of control
same,T/C,[16],95 % of control
CCc1c(CNc2ccc(C(=O)NC(CC(=O)O)C(=O)O)cc2)ccc2nc(N)nc(N)c12 (stereo unspecified),T/C,"dose: 0.06 mg/kg/injection, schedule: Q01DX009 (ip), vehicle: saline",112 % of control
same,T/C,"dose: 0.25 mg/kg/injection, schedule: Q01DX009 (ip), vehicle: saline",150 % of control and 184 % of control
same,T/C,"dose: 0.5 mg/kg/injection, schedule: Q01DX009 (ip), vehicle: saline",150 % of control
same,T/C,"dose: 0.5 mg/kg/injection, schedule: Q04DX003 (ip), vehicle: saline",112 % of control
same,T/C,"dose: 1.0 mg/kg/injection, schedule: Q01DX009 (ip), vehicle: saline",90 % of control and 91 % of control
same,T/C,"dose: 4.0 mg/kg/injection, schedule: Q04DX003 (ip), vehicle: saline",154 % of control
same,T/C,"dose: 8.0 mg/kg/injection, schedule: Q04DX003 (ip), vehicle: saline",113 % of control
Cc1ccc(Cl)c(NC(=O)Nc2ccccc2F)c1,T/C,[4],97 % of control
same,T/C,[6],100 % of control
same,T/C,[8],103 % of control
CCOC(=O)Nc1ccc([N+](=O)[O-])cc1,T/C,[4],87 % of control
same,T/C,[5],99 % of control
same,T/C,[6],99 % of control
same,T/C,[7],110 % of control
same,T/C,[8],97 % of control
same,T/C,[9],89 % of control
O=[N+]([O-])c1ccc2c(c1)c(-c1cc(Cl)cc(Cl)c1)nc1ccccc12,T/C,"dose: 50.0 mg/kg/injection, schedule: Q01DX009 (ip), vehicle: saline with Tween-80",104 % of control
same,T/C,[17],103 % of control
same,T/C,[14],93 % of control
same,T/C,[18],106 % of control
same,T/C,[15],90 % of control
same,T/C,[16],93 % of control
CCCCNC(=S)NNC(=O)c1ccncc1,T/C,"dose: 100.0 mg/kg/injection, schedule: Q04DX002 (ip), vehicle: Klucel (hydroxypropylcellulose) (HPC)",107 % of control
same,T/C,"dose: 200.0 mg/kg/injection, schedule: Q04DX002 (ip), vehicle: Klucel (hydroxypropylcellulose) (HPC)",95 % of control and 105 % of control
same,T/C,"dose: 400.0 mg/kg/injection, schedule: Q04DX002 (ip), vehicle: Klucel (hydroxypropylcellulose) (HPC)",96 % of control and 98 % of control
Cc1cc(=O)[nH]c2c(C)cc(-c3cc(C)c4[nH]c(=O)cc(C)c4c3)cc12,T/C,[17],101 % of control
same,T/C,[3],98 % of control
same,T/C,[18],97 % of control
same,T/C,[19],91 % of control
same,T/C,[20],92 % of control
same,T/C,[21],98 % of control
O=C(O)c1ccccc1SCCO,T/C,[1],109 % of control
same,T/C,[22],94 % of control
same,T/C,[23],95 % of control
CC(C)(C#N)NC(N)=O,T/C,[11],101 % of control
same,T/C,[1],103 % of control
same,T/C,[3],107 % of control
same,T/C,[12],102 % of control
same,T/C,[22],102 % of control
same,T/C,[19],104 % of control
same,T/C,[13],98 % of control
same,T/C,[23],97 % of control
same,T/C,[21],102 % of control
O=[N+]([O-])c1ccc(CS(=O)(=O)Cc2ccc([N+](=O)[O-])cc2)cc1,T/C,"dose: 150.0 mg/kg/injection, schedule: Q01DX001 (ip), vehicle: carboxymethylcellulose (CMC)",93 % of control
same,T/C,"dose: 300.0 mg/kg/injection, schedule: Q01DX001 (ip), vehicle: carboxymethylcellulose (CMC)",89 % of control
Cc1ccc(NCCN(C)C)c2c(=O)c3ccccc3sc12,T/C,"dose: 9.3 mg/kg/injection, schedule: Q01DX Z (ip), vehicle: saline",104 % of control
same,T/C,"dose: 14.0 mg/kg/injection, schedule: Q01DX Z (ip), vehicle: saline",108 % of control
same,T/C,"dose: 21.0 mg/kg/injection, schedule: Q01DX Z (ip), vehicle: saline",118 % of control
same,T/C,"dose: 28.0 mg/kg/injection, schedule: Q01DX Z (ip), vehicle: saline",117 % of control
same,T/C,"dose: 42.0 mg/kg/injection, schedule: Q01DX Z (ip), vehicle: saline",163 % of control
same,T/C,[10],101 % of control
same,T/C,"dose: 84.0 mg/kg/injection, schedule: Q01DX Z (ip), vehicle: saline",115 % of control
same,T/C,"dose: 89.0 mg/kg/injection, schedule: Q01DX001 (ip), vehicle: saline",100 % of control
same,T/C,"dose: 93.0 mg/kg/injection, schedule: Q01DX Z (ip), vehicle: saline",101 % of control
same,T/C,[11],109 % of control
same,T/C,"dose: 100.0 mg/kg/injection, schedule: Q01DX Z (ip), vehicle: saline",107 % of control
same,T/C,"dose: 125.0 mg/kg/injection, schedule: Q01DX Z (ip), vehicle: carboxymethylcellulose (CMC)",151 % of control
same,T/C,"dose: 133.0 mg/kg/injection, schedule: Q01DX001 (ip), vehicle: saline",117 % of control
same,T/C,[12],155 % of control and 212 % of control
Cc1ccc(S(=O)(=O)N(CC(=O)c2ccccc2)c2ccc(Br)cc2)cc1,T/C,[11],89 % of control
same,T/C,[12],86 % of control
same,T/C,[13],86 % of control
COc1ccc(CC(Cc2ccc(OC)c(OC)c2)NC=O)cc1OC,T/C,[17],95 % of control
same,T/C,[18],97 % of control
same,T/C,[20],100 % of control
CCCCCCC12CCC(O)C1(CCCCCCC(=O)O)O2 (stereo unspecified),T/C,"dose: 50.0 mg/kg/injection, schedule: Q04DX002 (ip), vehicle: saline",95 % of control
same,T/C,"dose: 100.0 mg/kg/injection, schedule: Q04DX002 (ip), vehicle: saline",102 % of control
same,T/C,"dose: 200.0 mg/kg/injection, schedule: Q04DX002 (ip), vehicle: saline",91 % of control
NC(=O)N(CCO)CCO,T/C,[3],110 % of control
same,T/C,[19],96 % of control
same,T/C,[21],104 % of control
CCCNC(=S)NNC(=O)c1ccncc1,T/C,[2],100 % of control
same,T/C,"dose: 200.0 mg/kg/injection, schedule: Q04DX002 (ip), vehicle: saline with Tween-80",118 % of control
COc1ccccc1CC(C)N (stereo unspecified),T/C,"dose: 5.0 mg/kg/injection, schedule: Q01DX001 (ip), vehicle: saline",100 % of control
same,T/C,"dose: 10.0 mg/kg/injection, schedule: Q01DX001 (ip), vehicle: saline",102 % of control
same,T/C,"dose: 20.0 mg/kg/injection, schedule: Q01DX001 (ip), vehicle: saline",102 % of control
same,T/C,"dose: 20.0 mg/kg/injection, schedule: Q01DX009 (ip), vehicle: saline",106 % of control
same,T/C,"dose: 40.0 mg/kg/injection, schedule: Q01DX001 (ip), vehicle: saline",96 % of control
same,T/C,"dose: 40.0 mg/kg/injection, schedule: Q01DX009 (ip), vehicle: saline",97 % of control
same,T/C,"dose: 80.0 mg/kg/injection, schedule: Q01DX009 (ip), vehicle: saline",111 % of control
same,T/C,[11],103 % of control
CCOC(=O)C(C)(C)CN(CC(C)(C)C(=O)OCC)C(C)(C)C,T/C,"dose: 100.0 mg/kg/injection, schedule: Q01DX001 (ip), vehicle: saline sonified",87 % of control
same,T/C,"dose: 200.0 mg/kg/injection, schedule: Q01DX001 (ip), vehicle: saline sonified",93 % of control
same,T/C,"dose: 400.0 mg/kg/injection, schedule: Q01DX001 (ip), vehicle: saline sonified",91 % of control
